Non-standard residues stand in square brackets, D forms with d. No end group written: not given here. pS = N[C@@H](COP(=O)(O)O)C(=O)O

One assay has as its system CRC cell line SW620. Description: Killing of CRC cell line by phosphopeptide-specific T cell lines. It is filed as cell-based, human. To be noted: T cell lines established against the phosphopeptide. From the text:
T cells lines were established against some of these key phosphopeptide targets.

The subject of the next assay is Healthy donor PBMC. Description: Cultured IFNγ ELISpot on day 7, healthy donor PBMC. The settings on record: day 7, HLA-matched healthy donors. It is filed as cell-based, human. Here is the method: Healthy donor PBMC responses to the CRC tumor-specific phosphopeptides were assessed using a cultured IFNγ ELISpot on day 7.
Generally, quantification of T cell IFNγ production in response to peptides was performed by ELISpot as per manufacturer's instructions. In brief, ELISpotPRO wells, pre-coated with IFNγ monoclonal antibody mAb 1-D1K (MabTech, product code: 3420-2APW-2), were washed four times with sterile PBS and blocked for 30 minutes with 200 μl 10% RPMI 1640 after which the blocking medium was removed.
For ELISpot analysis, PBMCs and CD8+ T cells were isolated fresh from healthy donors and patients. 1×10^6 PBMCs were isolated from both disease patients and healthy donors and re-suspended in AIM-V media (10% human AB serum) in a 96 well plate. Peptide or phosphopeptides were added individually at 10 μg/ml and placed at 37° C. in CO2 incubator for 7 days. Cells were then harvested, washed four times, and re-challenged with either phosphopeptides, peptides, anti CD3 (OKT3, 100 ng/ml, Mabtech) as per manufacturer's instructions. Individual cytokine-producing cells were identified as dark spots after a 15 minute reaction with 5-bromo-4-chloro-3-indolyl phosphate and NBT by means of an alkaline phosphatase conjugate substrate (Mabtech).

Assay [1] deals with Tumor infiltrating lymphocytes (TILs). Briefly: TIL responses to phosphopeptides, multiplexed intracellular cytokine staining for IL-2, IFNγ, TNFα. It is filed as cell-based, human. As for the experimental part:
Tumor infiltrating lymphocytes (“TILs”) from the same tumors, were extracted and expanded, and their responses to the phosphopeptides assessed using multiplexed intracellular cytokine staining for IL-2, IFNγ, and TNFα as depicted in FIG. 1A.
Tumor infiltrating lymphocytes (TILs) were also taken from the patient tumors at resection and expanded, using high-dose IL-2 (6000 IU/ml). TIL responses to the phosphopeptides were then tested using ICS. TILs were stimulated with phosphopeptide and cultured for 7 days before being re-stimulated in an intracellular cytokine staining assay assessing production of tumor necrosis factor alpha (TNFα), interferon gamma (IFNγ) and interleukin-2 (IL-2). The results are depicted in FIG. 6.

The test system of another assay is xenograft tumor. Briefly: Xenograft tumor model system. It is filed as in vivo. From the text: (§1) IRS proteins are adapter proteins that link signaling from upstream activators to multiple downstream effectors to modulate normal growth, metabolism, survival and differentiation.
Assay [2] concerns human melanoma and breast tumors. Description: Recognition and killing of tumors in vitro by phosphopeptide-specific CD8+ T cells. It is filed as cell-based.
Excerpt: as §1

The next assay has as its system CD8+ T cells. Description: Immunization of HLA-A2 transgenic mice with phosphopeptide. It is filed as in vivo, mouse. The settings on record: immunization with the phosphopeptide. As for the experimental part:
In some embodiments, the immunogenicity of a target peptide is measured using transgenic mice expressing human MHC class I genes. For example, “ADD Tg mice” express an interspecies hybrid class I MHC gene, AAD, which contains the α-1 and α-2 domains of the human HLA-A2.1 gene and the α-3 transmembrane and cytoplasmic domains of the mouse H-2Dd gene, under the transcriptional control of the human HLA-A2.1 promoter. Immunodetection of the HLA-A2.1 recombinant transgene established that expression was at equivalent levels to endogenous mouse class I molecules. The mouse α-3 domain expression enhances the immune response in this system. Compared to unmodified HLA-A2.1, the chimeric HLA-A2.1/H2-Dd MHC Class I molecule mediates efficient positive selection of mouse T cells to provide a more complete T cell repertoire capable of recognizing peptides presented by HLA-A2.1 Class I molecules.
The peptide epitopes presented and recognized by mouse T cells in the context of the HLA-A2.1/H2-Dd class I molecule are the same as those presented in HLA-A2.1^+ humans. […]
In some embodiments, the immunogenicity of a modified phosphopeptide is determined by the degree of Interferon gamma (IFNγ) and/or tumor necrosis factor-alpha (TNF-α) production of T cells from ADD Tg mice immunized with the target peptide, e.g., by immunization with target peptide pulsed bone marrow derived dendritic cells. […]

A further assay has as its system memory T cells. Description: Phosphopeptide-specific memory T cell response in a patient. It is filed as cell-based, human. From the text: The phrase “capable of inducing a target peptide-specific memory T cell response in a patient” as used herein relates to eliciting a response from memory T cells (also referred to as “antigen-experienced T cell”), which are a subset of infection- and cancer-fighting T cells that have previously encountered and responded to their cognate antigen. Such T cells can recognize foreign invaders, such as bacteria or viruses, as well as cancer cells. Memory T cells have become “experienced” by having encountered antigen during a prior infection, having encountered cancer, or via previous vaccination. At a second encounter with the cognate antigen (e.g., by way of an initial inoculation with a target peptide of the presently disclosed subject matter), memory T cells can reproduce to mount a faster and stronger immune response than the first time the immune system responded to the invader (e.g., through the body's own consciously unperceived recognition of a target peptide being associated with diseased tissue). This behavior can be assayed in T lymphocyte proliferation assays, which can reveal exposure to specific antigens.
Tensin 3 (TNS3) plays a role in actin remodeling. It is involved in the dissociation of the integrin-tensin-actin complex. EGF activates TNS4 and down-regulates TNS3 which results in capping the tail of ITGB1. […]

As to “LPIFSRLsI (LPIFSRL[pS]I; listed as Homo sapiens) [ZFP36L2]”, in the assay on CRC cell line SW620, the “Killing of SW620 by phosphopeptide-specific T cell line” value is given as “specifically kill”. In addition, the “Healthy donor PBMC responses, IFNγ ELISpot” value in the assay on Healthy donor PBMC is “many responses were seen”.
Consider “RPRARsVDAL (RPRAR[pS]VDAL; listed as Homo sapiens) [LISCH7]”, for which, in assay [1] (TILs from the tumor from which the phosphopeptides were identified, equivalent to the EBV peptide response), the TIL response was ~2 % of TILs.
In the case of “RTHsLLLLL (RTH[pS]LLLLL; listed as Homo sapiens) [RNASE4]”, the “Healthy donor PBMC responses, IFNγ ELISpot” value in the assay with Healthy donor PBMC is on record as “many responses were seen”.
For “RTMsEAALVRK (RTM[pS]EAALVRK; listed as Homo sapiens) [RASSF6]”, the “TIL responses to phosphopeptide (IL-2, IFNγ, TNFα)” value in assay [1] (TILs extracted from tumors and expanded) is “responses were seen”.
As to “RVAsPTSGV (RVA[pS]PTSGV; listed as Homo sapiens) [IRS2 (A2), HLA-A*0201 phosphopeptide from insulin receptor substrate 2]”, in the assay with xenograft tumor, the “Tumor growth control by the T cells” value is “controlled tumor growth”. In addition, in assay [2], the “Recognition and killing of human melanoma and breast tumors by the T cells” value is “capable of recognizing and killing”. Besides, in the assay on CRC cell line SW620, the “Killing of SW620 by phosphopeptide-specific T cell line” value is “specifically kill”. For the same substance, in the assay on CD8+ T cells, the “Generation of phosphopeptide-specific CD8+ T cells” value was “can be generated”.
As for “VMIGsPKKV (VMIG[pS]PKKV; listed as Homo sapiens) [Tensin 3 phosphopeptide]”, the “Phosphopeptide-specific memory T cell response” value in the assay on memory T cells is given as “capable of inducing a strong phosphopeptide-specific memory T cell response”.

Source of the values: patent US10682399B2, “Target peptides for colorectal cancer therapy and diagnostics” (University of Virginia Patent Foundation, priority 2012, dated 2020).
